Target: T1, 5HTR2B (Homo sapiens, UniProt P41595)
T1 construct: host or cells: human Maverick/293 cells
Assay: 5HTR2B antagonist activity, calcium mobilization assay in human Maverick/293 cells (serotonin as agonist)
Assay type: cell-based
Conditions: intracellular calcium, emission 525 nm, read-out: Ca assay IC50
Summary of the method: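 Serum-starved (2 h) human Maverick/293 cells loaded with calcium dye for 50 min at 37 °C, then antagonist preincubated 15-30 min before serotonin challenge. Calcium fluorescence (ex 485/em 525 nm) recorded for 80 s; peak-based % inhibition fitted sigmoidally for IC50.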

T1 sequence (P41595 whole entry): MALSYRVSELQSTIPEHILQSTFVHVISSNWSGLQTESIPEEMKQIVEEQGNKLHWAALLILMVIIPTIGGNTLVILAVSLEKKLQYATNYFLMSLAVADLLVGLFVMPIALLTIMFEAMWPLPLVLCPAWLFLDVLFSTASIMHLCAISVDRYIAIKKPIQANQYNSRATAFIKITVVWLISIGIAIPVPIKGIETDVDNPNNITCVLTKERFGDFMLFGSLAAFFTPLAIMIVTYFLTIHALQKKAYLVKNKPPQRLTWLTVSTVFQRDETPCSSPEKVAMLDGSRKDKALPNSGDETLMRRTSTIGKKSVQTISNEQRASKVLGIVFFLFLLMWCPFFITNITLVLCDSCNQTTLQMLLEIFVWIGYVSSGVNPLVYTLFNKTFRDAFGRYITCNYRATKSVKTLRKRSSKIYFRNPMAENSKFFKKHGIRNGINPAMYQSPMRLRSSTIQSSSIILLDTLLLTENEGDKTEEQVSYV

| Compound | IC50 [nM] |
| --- | --- |
| COc1ccc(S(=O)(=O)N[C@@H](C)CO)cc1C(=O)Nc1ccc(F)cc1 [Compound 52a, (S)—N-(4-fluorophenyl)-5-(N-(1-hydroxypropan-2-yl)sulfamoyl)-2-methoxybenzamide] | 50 |
| COc1ccc(S(=O)(=O)N[C@H]2CCOC2)cc1C(=O)Nc1c(F)cc(C#N)cc1F [Compound 80, (S)—N-(4-cyano-2,6-difluorophenyl)-2-methoxy-5-(N-(tetrahydrofuran-3-yl)sulfamoyl)benzamide] | 574 |
| COc1ccc(S(=O)(=O)N[C@H]2C[C@@](C)(O)C2)cc1C(=O)Nc1ccc(F)c(C)n1 [Compound 31, N-(5-fluoro-6-methylpyridin-2-yl)-5-(N-((cis)-3-hydroxy-3-methylcyclobutyl)sulfamoyl)-2-methoxybenzamide] | 55 |
| COc1ccc(S(=O)(=O)NC2(C(F)(F)F)CC2)cc1C(=O)Nc1ccc(F)c(C)n1 [Compound 168, N-(5-fluoro-6-methylpyridin-2-yl)-2-methoxy-5-(N-(1-(trifluoromethyl)cyclopropyl)sulfamoyl)benzamide] | 3.9 |
| COc1ccc(S(=O)(=O)N[C@H]2CCOC2)cc1C(=O)Nc1nc(C)c(C)s1 [Compound 83, (S)—N-(4,5-dimethylthiazol-2-yl)-2-methoxy-5-(N-(tetrahydrofuran-3-yl)sulfamoyl)benzamide] | 126 |
| COc1ccc(S(=O)(=O)NC2COC2)cc1C(=O)Nc1ccccc1Cl [Compound 62, N-(2-Chlorophenyl)-2-methoxy-5-(N-(oxetan-3-yl)sulfamoyl)benzamide] | 0.1 |
| COc1ccc(S(=O)(=O)NC2COC[C@@H]2O)cc1C(=O)Nc1ccccc1Cl (stereo in doubt) [Compound 56a, N-(2-Chlorophenyl)-5-(N-((cis)-4-hydroxytetrahydrofuran-3-yl)sulfamoyl)-2-methoxybenzamide] | 0.1 |
| COc1ccc(S(=O)(=O)NC2CCCC2)cc1C(=O)Nc1ccc(F)cc1 [Compound 51, 5-(N-Cyclopentylsulfamoyl)-N-(4-fluorophenyl)-2-methoxybenzamide] | 1 |
| COc1ccc(S(=O)(=O)N[C@H]2C[C@@H](O)C2)cc1C(=O)Nc1cc(C)ccc1Cl [Compound 137b, N-(2-Chloro-5-methylphenyl)-5-(N-((cis)-3-hydroxycyclobutyl)sulfamoyl)-2-methoxybenzamide] | 39 |
| [2H]C([2H])([2H])Oc1ccc(S(=O)(=O)N[C@H]2CCOC2)cc1C(=O)Nc1ncc(F)cc1F [Compound 196, (S)—N-(3,5-difluoropyridin-2-yl)-2-(methoxy-d3)-5-(N-(tetrahydrofuran-3-yl)sulfamoyl)benzamide] | 19 |
| COc1ccc(S(=O)(=O)NC2CNC2)cc1C(=O)Nc1ccc(F)c(C)n1 [Compound 169, 5-(N-(Azetidin-3-yl)sulfamoyl)-N-(5-fluoro-6-methylpyridin-2-yl)-2-Methoxy benzamide] | 65 |
| COc1ccc(S(=O)(=O)N[C@H](C)CO)cc1C(=O)Nc1ccc(F)c(C)c1 [Compound 10b, (R)—N-(4-Fluoro-3-methylphenyl)-5-(N-(1-hydroxypropan-2-yl)sulfamoyl)-2-methoxybenzamide] | 12 |
| [2H]C([2H])([2H])Oc1ccc(S(=O)(=O)N[C@H]2CCOC2)cc1C(=O)Nc1ccc(F)c(C)n1 [Compound 194, (S)—N-(5-fluoro-6-methylpyridin-2-yl)-2-(methoxy-d3)-5-(N-(tetrahydrofuran-3-yl)sulfamoyl)benzamide] | 1.1 |
| COc1ccc(S(=O)(=O)N[C@H]2CCC[C@H]2O)cc1C(=O)Nc1ccccc1Cl [Compound 61a, N-(2-Chlorophenyl)-5-(N-((1s,2r)-2-hydroxycyclopentyl)sulfamoyl)-2-methoxy benzamide] | 0.1 |
| COc1ccc(S(=O)(=O)N[C@H]2CCOC2)cc1C(=O)Nc1ncc(F)cc1Cl [Compound 119] | 1.4 |
| COc1ccc(S(=O)(=O)N[C@H]2C[C@@H](O)C2)cc1C(=O)Nc1ccc(F)c(C(F)F)c1 [Compound 142b, N-(3-(difluoromethyl)-4-fluorophenyl)-5-(N-((cis)-3-hydroxycyclobutyl)sulfamoyl)-2-methoxybenzamide] | 1.1 |
| COc1ccc(S(=O)(=O)N[C@H](C)CO)cc1C(=O)Nc1ccccc1Cl [Compound 55b, (R)—N-(2-Chlorophenyl)-5-(N-(1-hydroxypropan-2-yl)sulfamoyl)-2-methoxy benzamide] | 0.1 |
| COc1ccc(S(=O)(=O)NC(C)CC#N)cc1C(=O)Nc1ccc(F)c(C)c1 (single isomer, unassigned) [Compound 11a, (S*)-5-(N-(1-Cyanopropan-2-yl)sulfamoyl)-N-(4-fluoro-3-methylphenyl)-2-methoxybenzamide] | 68 |
| COc1ccc(S(=O)(=O)NCC(O)C(F)(F)F)cc1C(=O)Nc1ccc(F)c(C)n1 (single isomer, unassigned) [Compound 23a, (R*)—N-(5-fluoro-6-methylpyridin-2-yl)-2-methoxy-5-(N-(3,3,3-trifluoro-2-hydroxypropyl)sulfamoyl)benzamide] | 4.7 |
| COc1ccc(S(=O)(=O)N[C@H]2CCOC2)cc1C(=O)Nc1ccc(Br)cc1 [Compound 125, (S)—N-(4-Bromophenyl)-2-methoxy-5-(N-(tetrahydrofuran-3-yl)sulfamoyl) benzamide] | 28 |
| COc1ccc(S(=O)(=O)NC2COC2)cc1C(=O)Nc1ccc(F)c(C(F)F)c1 [Compound 39, N-(3-(Difluoromethyl)-4-fluorophenyl)-2-methoxy-5-(N-(oxetan-3-yl)sulfamoyl)benzamide] | 3.6 |
| COc1ccc(S(=O)(=O)N[C@H]2CCOC2)cc1C(=O)Nc1ccc(C#N)c(Cl)c1 [Compound 89, (S)—N-(3-Chloro-4-cyanophenyl)-2-methoxy-5-(N-(tetrahydrofuran-3-yl)sulfamoyl)benzamide] | 1950 |
| COc1ccc(S(=O)(=O)N[C@H]2C[C@@H](O)C2)cc1C(=O)Nc1cccc(C)c1Cl [Compound 140b, N-(2-Chloro-3-methylphenyl)-5-(N-((cis)-3-hydroxycyclobutyl)sulfamoyl)-2-methoxybenzamide] | 0.9 |
| COc1ccc(S(=O)(=O)NCC(O)C(F)(F)F)cc1C(=O)Nc1ccc(F)cc1 (single isomer, unassigned) [Compound 44a, (S*)—N-(4-Fluorophenyl)-2-methoxy-5-(N-(3,3,3-trifluoro-2-hydroxypropyl)sulfamoyl)benzamide] | 2.4 |
| COc1ccc(S(=O)(=O)N[C@H](C)CC#N)cc1C(=O)Nc1ccc(F)c(C)c1 (single isomer, unassigned) [Compound 11b, (R*)-5-(N-(1-Cyanopropan-2-yl)sulfamoyl)-N-(4-fluoro-3-methylphenyl-2-methoxybenzamide] | 5.1 |

The remaining lines, values ahead:

| IC50 [nM] | Compound |
| --- | --- |
| 4.2 | COc1ccc(S(=O)(=O)NC2COC2)cc1C(=O)Nc1ccc(F)c(C)c1 [Compound 5, N-(4-Fluoro-3-methylphenyl)-2-methoxy-5-(N-(oxetan-3-yl)sulfamoyl) benzamide] |
| 47 | CNS(=O)(=O)c1ccc(OC)c(C(=O)Nc2ccc(F)c(C)n2)c1 [Compound 24] |
| 0.4 | COc1ccc(S(=O)(=O)NC2CC[C@H](O)C2)cc1C(=O)Nc1ccc(F)c(C(F)F)c1 (stereo in doubt) [Compound 33b, N-(3-(Difluoromethyl)-4-fluorophenyl)-5-(N-((cis)-3-hydroxycyclopentyl)sulfamoyl)-2-methoxybenzamide] |
| 161 | COc1ccc(S(N)(=O)=O)cc1C(=O)Nc1ccc(F)cc1F [Compound 148, N-(2,4-Difluorophenyl)-2-methoxy-5-sulfamoylbenzamide] |
| 0.8 | COc1ccc(S(=O)(=O)N[C@H]2C[C@H](O)C2)cc1C(=O)Nc1cc(F)ccc1Cl [Compound 146a, N-(2-chloro-5-fluorophenyl)-5-(N-((trans)-3-hydroxycyclobutyl)sulfamoyl)-2-methoxybenzamide] |
| 5.3 | COc1ccc(S(=O)(=O)N[C@H]2CCOC2)cc1C(=O)Nc1ccc(F)c(Cl)c1F [Compound 77, (S)—N-(3-Chloro-2,4-difluorophenyl)-2-methoxy-5-(N-(tetrahydrofuran-3-yl)sulfamoyl)benzamide] |
| 50 | COc1ccc(S(=O)(=O)N[C@H]2CCOC2)cc1C(=O)Nc1ncc(Cl)cc1F [Compound 120, (S)—N-(5-Chloro-3-fluoropyridin-2-yl)-2-methoxy-5-(N-(tetrahydrofuran-3-yl)sulfamoyl)benzamide] |
| 5 | COc1ccc(S(=O)(=O)NCC(O)C(F)(F)F)cc1C(=O)Nc1ccc(F)c(C)n1 (single isomer, unassigned) [Compound 23b, (S*)—N-(5-fluoro-6-methylpyridin-2-yl)-2-methoxy-5-(N-(3,3,3-trifluoro-2-hydroxypropyl)sulfamoyl)benzamide] |
| 92 | COc1ccc(S(=O)(=O)N[C@H]2CCOC2)cc1C(=O)Nc1c(F)cc(Cl)cc1F [Compound 91, (S)—N-(4-Chloro-2,6-difluorophenyl)-2-methoxy-5-(N-(tetrahydrofuran-3-yl)sulfamoyl)benzamide] |
| 4.6 | COc1ccc(S(=O)(=O)N[C@H]2CCOC2)cc1C(=O)Nc1cccc(F)c1 [Compound 100, (S)—N-(3-Fluorophenyl)-2-methoxy-5-(N-(tetrahydrofuran-3-yl)sulfamoyl) benzamide] |
| 0.6 | COc1ccc(S(=O)(=O)N[C@H]2CC[C@@H](O)CC2)cc1C(=O)Nc1ccc(F)c(C(F)F)c1 [Compound 38, N-(3-(Difluoromethyl)-4-fluorophenyl)-5-(N-((cis)-4-hydroxycyclohexyl)sulfamoyl)-2-methoxybenzamide] |
| 5.4 | COc1ccc(S(=O)(=O)NC2CC(C)C2)cc1C(=O)Nc1ccc(F)c(C)c1 (centres unmarked) [Compound 7, N-(4-Fluoro-3-methylphenyl)-2-methoxy-5-(N-(3-methylcyclobutyl)sulfamoyl) benzamide] |
| 5.1 | COc1ccc(S(=O)(=O)N[C@H]2CCOC2)cc1C(=O)Nc1ccc(Cl)c(Cl)c1 [Compound 72, (S)—N-(3,4-Dichlorophenyl)-2-methoxy-5-(N-(tetrahydrofuran-3-yl)sulfamoyl) benzamide] |

Reference: patent US10654837B2, “Sulphamoylaryl derivatives and use thereof as medicaments for the treatment of liver fibrosis” (Janssen Pharmaceutica NV, priority 2017, dated 2020)
